Test results published in patent publication US9567636B2, “Use of HLA-B*1301 allele” (Shandong Provincial Institute of Dermatology and Venereology, priority 2012, dated 2017).
Where two headings read alike, the source gives them in different places.

Experiments:
HLA-B*1301 allele [1] = settings: human, in vivo
Text: The 454 sequencing platform (Genome Sequencer FLX system developed by Roche 454 Life Sciences) was employed to conduct HLA sorting on 76 DHS patients in the case samples and 1034 non-DHS patients in the clinical control samples, and the sorting results are shown in Table 1.
The HLA-B*1301 heterozygous carriers were at a risk of DHS of ORhet=61×886/10×144=37.53 (confidence level, 0.95; confidence interval (18.80, 74.94)); the HLA-B*1301 homozygous carriers were at a risk of DHS of ORhom=5×886/10×4=110.75 (confidence level, 0.95; confidence interval (25.85, 474.54)).
A recent review regarding the Asian population deduced that the prevalence rate of DHS was 1.4% (Lorenz, Wozel et al. 2012). Based on this prevalence rate, the positive predictive value was 7.9%, the negative predictive value was 99.8%, the positive likelihood ratio was 6.07, and the negative likelihood ratio was 0.1536, upon calculation. According to the positive likelihood ratio of 6.07, the risk of DHS in individuals with the HLA-B*1301 will be raised to 7.9%; and according to the negative likelihood ratio of 0.1536, the incidence of DHS in individuals […] will be decreased from 1.4% to 0.2%.

HLA-B*1301 allele [2] = settings: human, in vivo; remark: listed apart in the source
Method: To further verify the correlation of HLA-B*1301 allele, the 454 sequencing platform (Genome Sequencer FLX system developed by Roche 454 Life Sciences) was employed to conduct HLA sorting on another 37 DHS patients in the case samples and another 201 non-DHS patients in the clinical control samples (randomizedly selected from a total of 1089 validation controls). Wherein, PCR amplification was conducted on genomic DNA isolated from the peripheral blood of the samples for the HLA-B*1301 allele using primer pair 1 and primer pair 2, respectively. The primer pair 1 consists of the single-stranded DNA as set forth in SEQ ID No.1 and SEQ ID No.2; and the primer pair 2 consists of the single-stranded DNA as set forth in SEQ ID No.3 and SEQ ID No.4.

[3] = both, human, in vivo
Text: 76 Chinese DHS patients (39 for the discovery-phase study, and 37 for the validation-phase study) were included in the study. […] The diagnosis of DHS was based on the medical history, clinical manifestations and laboratory examinations of the patients.

HLA-B*1301 allele [4] = settings: both, human, in vivo

HLA-B*1301 allele carried by DHS patients (HLA-B*1301 allele [1]): 86.8% | HLA-B*1301 allele carried by non-DHS patients (HLA-B*1301 allele [1]): 14.3% | risk of DHS in individuals with the HLA-B*1301 (HLA-B*1301 allele [1]): 7.9% | OR of DHS for HLA-B*1301 (HLA-B*1301 allele [2]): 23.54 | patients abnormally increased in the level of serum bilirubin [3]: 35 patients | patients decreased in the level of hemoglobin [3]: 37 patients | patients significantly increased in the level of alanine transaminase [3]: 58 patients | patients significantly increased in the level of aspartate aminotransferase [3]: 49 patients | skin lesion: exfoliative dermatitis [3]: 38.5% | skin lesion: maculopapule [3]: 57.7% | skin lesion: scarlatiniform erythema [3]: 7.7% | system involvement: abnormal liver function [3]: 74.4% | system involvement: fever [3]: 83.1% | system involvement: swollen lymph glands [3]: 34.6% | skin lesion: oral erosion ([3]; po): 1.3% | OR of DHS for HLA-B*1301 (HLA-B*1301 allele [4]): 21.67
Compound: Nc1ccc(S(=O)(=O)c2ccc(N)cc2)cc1 [DDS, 4,4′-diamino diphenyl sulfone]
